In patent publication US20240226228A1, “ANTIMICROBIAL PEPTOID HAVING IMPROVED SELECTIVITY AND ANTIMICROBIAL COMPOSITION COMPRISING SAME” (priority 2021, published 2024):
Converted amounts (≈) assume the structure as drawn. Read-outs that look alike come from different tables or passages of the source. Where a SMILES comes first, the peptide text is derived from it. [ ]: non-standard residue; d: D form. Gly(N(CH2)2(3-indolyl)) = O=C(O)CNCCc1c[nH]c2ccccc12; Gly(N-CH2CH2-imidazol-4-yl) = O=C(O)CNCCc1c[nH]cn1; Nspe = C[C@H](NCC(=O)O)c1ccccc1; Nlys = NCCCCNCC(=O)O

What was measured:
[1] = HPLC to confirm peptoid decomposition after counter ion substitution; type: physicochemical; conditions: HPLC at 220 nm; HCl and AcOH
Procedure: FIGS. 76 to 83 are the HPLC results for Peptoids 1, 10, 11, 14, 15, 29, 32 and 37 of the present inventive concept to confirm the decomposition of the peptoids after counter ion substitution using (a) HCl and (b) AcOH.
Referring to FIGS. […], HPLC was performed for Peptoids 1, 10, 11, 14, 15, 29, 32 and 37 of the present inventive concept. Since the chloride (HCl) is a stronger acid than TFA, it can decompose acid-vulnerable peptoid compounds.

E. coli ATCC25922 = conditions: for antimicrobial activity (in words): E. coli and S. aureus, compared to Peptoid 1, parent peptoid or TFA salt as stated
Method in brief: (§1)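 Cation-adjusted MHB2 cultures (18 h, subcultured 4 h) adjusted to 2×10^5–5×10^5 CFU/mL in medium with 0.02% BSA and 0.001% acetic acid.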

S. aureus ATCC 25923 = test system: S. aureus ATCC 25923
Method in brief: as §1

red blood cells = assay: Hemolysis assay; type: cell-based, Sprague-Dawley mouse
Method in brief: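 Peptoid is mixed with 10% (v/v) PBS-washed erythrocytes (male Sprague-Dawley […], 13 weeks) and held 1 h at 37 °C. Hemolysis is calculated from 540 nm absorbance of the supernatant, with PBS as 0% and Triton X-100 as 100%.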

[2] = Tables 11-13, 24 hours at 37° C., maximum concentration 25 μM
[3] = Table 18, TFA salt vs counter ion-substituted (HCl, AcOH) peptoids

Row | Structure (SMILES) | peptoid decomposition after counter ion substitution (in words) [1] | MIC E. coli ATCC25922 (E. coli ATCC25922; ATCC25922) | antimicrobial activity (in words) (E. coli ATCC25922) | MIC E. coli ATCC25922 (E. coli ATCC25922; [2]) | MIC S. aureus ATCC 25923 (S. aureus ATCC 25923; [3]) | MIC S. aureus ATCC 25923 (S. aureus ATCC 25923; [2]) | HC10 (red blood cells) | HC50 (red blood cells) | Hmax (100 μM) (red blood cells) | MIC S. aureus ATCC 25923 (S. aureus ATCC 25923; ATCC 25923) | HD10 (red blood cells) | HD50 (red blood cells) | MIC E. coli ATCC25922 (E. coli ATCC25922; [3])
1 | C[C@@H](c1ccccc1)N(CC(N)=O)C(=O)CN(C(=O)CN(CCCCN)C(=O)CN(C(=O)CN(C(=O)CN(CCCCN)C(=O)CN(C(=O)CN(C(=O)CN(CCCCN)C(=O)CN(CCc1c[nH]c2ccccc12)C(=O)CN(C(=O)CNCCCCN)[C@@H](C)c1ccccc1)[C@@H](C)c1ccccc1)[C@@H](C)c1ccccc1)[C@@H](C)c1ccccc1)[C@@H](C)c1ccccc1)[C@@H](C)c1ccccc1 [Peptoid 10, H-NLys-Nspe-NhTrp-NLys-Nspe-Nspe-NLys-Nspe-Nspe-NLys-Nspe-Nspe-NH2] | almost no peptoid decomposition occurred | 3.1 µM (≈ 5.76 µg/mL) | antimicrobial activity was reduced | 3.1 µM (≈ 5.76 µg/mL) | 0.8 µM | 1.6 µM (≈ 2.97 µg/mL) |  |  |  |  |  |  | 
2 | C[C@@H](c1ccccc1)N(CC(=O)N(CCCCN)CC(=O)N(CC(=O)N(CC(=O)N(CCCCN)CC(=O)N(CC(=O)N(CC(=O)N(CCCCN)CC(N)=O)[C@@H](C)c1ccccc1)[C@@H](C)c1ccccc1)[C@@H](C)c1ccccc1)[C@@H](C)c1ccccc1)C(=O)CN(C(=O)CN(CCCCN)C(=O)CN(CCc1c[nH]c2ccccc12)C(=O)CNCCc1c[nH]c2ccccc12)[C@@H](C)c1ccccc1 [Peptoid 37, H-NhTrp-NhTrp-NLys-Nspe-Nspe-NLys-Nspe-Nspe-NLys-Nspe-Nspe-NLys-NH2] (H-[Gly(N(CH2)2(3-indolyl))][Gly(N(CH2)2(3-indolyl))][Nlys][Nspe][Nspe][Nlys][Nspe][Nspe][Nlys][Nspe][Nspe][Nlys]-NH2) | almost no peptoid decomposition occurred | 3.1 µM (≈ 5.88 µg/mL) | antimicrobial activity was reduced | 3.1 µM (≈ 5.88 µg/mL) | 1.6 µM | 1.6 µM (≈ 3.04 µg/mL) |  |  |  |  |  |  | 
3 | C[C@@H](c1ccccc1)N(CC(=O)N(CCc1c[nH]c2ccccc12)CC(=O)N(CCCCN)CC(=O)N(CC(=O)N(CCc1c[nH]c2ccccc12)CC(=O)N(CCCCN)CC(=O)N(CC(=O)N(CCc1c[nH]c2ccccc12)CC(=O)N(CCCCN)CC(=O)N(CC(=O)N(CCc1c[nH]c2ccccc12)CC(N)=O)[C@@H](C)c1ccccc1)[C@@H](C)c1ccccc1)[C@@H](C)c1ccccc1)C(=O)CNCCCCN [Peptoid 22] (H-[Nlys][Nspe][Gly(N(CH2)2(3-indolyl))][Nlys][Nspe][Gly(N(CH2)2(3-indolyl))][Nlys][Nspe][Gly(N(CH2)2(3-indolyl))][Nlys][Nspe][Gly(N(CH2)2(3-indolyl))]-NH2) |  |  |  | 12.5 µM (≈ 24.7 µg/mL) |  | 1.6 µM (≈ 3.16 µg/mL) | 6.9 µM | 19.4 µM | 108.6 ± 1.1% |  |  |  | 
4 | C[C@@H](c1ccccc1)N(CC(N)=O)C(=O)CN(CCCCN)C(=O)CN(CCCCN)C(=O)CN(C(=O)CN(C(=O)CN(CCCCN)C(=O)CN(C(=O)CN(C(=O)CN(CCCCN)C(=O)CN(Cc1ccccc1)C(=O)CN(Cc1ccccc1)C(=O)CNCCCCN)[C@@H](C)c1ccccc1)[C@@H](C)c1ccccc1)[C@@H](C)c1ccccc1)[C@@H](C)c1ccccc1 [Peptoid 47] |  |  |  | 25 µM (≈ 44 µg/mL) |  | 12.5 µM (≈ 22 µg/mL) | >100/>100 μM | >100/>100 μM | 4.8 ± 0.2% |  |  |  | 
5 | C[C@@H](c1ccccc1)N(CC(N)=O)C(=O)CN(CCCCN)C(=O)CN(CCCCN)C(=O)CN(C(=O)CN(C(=O)CN(CCCCN)C(=O)CN(C(=O)CN(C(=O)CN(CCCCN)C(=O)CN(CCc1c[nH]c2ccccc12)C(=O)CN(CCc1c[nH]c2ccccc12)C(=O)CNCCc1c[nH]cn1)[C@@H](C)c1ccccc1)[C@@H](C)c1ccccc1)[C@@H](C)c1ccccc1)[C@@H](C)c1ccccc1 [Peptoid 72] (H-[Gly(N-CH2CH2-imidazol-4-yl)][Gly(N(CH2)2(3-indolyl))][Gly(N(CH2)2(3-indolyl))][Nlys][Nspe][Nspe][Nlys][Nspe][Nspe][Nlys][Nlys][Nspe]-NH2) |  | 6.3 µM (≈ 11.9 µg/mL) |  |  |  |  |  |  | 11.8 ± 1.1 | 6.3 µM (≈ 11.9 µg/mL) | 88.9 | > 100.0 | 
6 | C[C@@H](c1ccccc1)N(CC(N)=O)C(=O)CN(CCCCN)C(=O)CN(CCCCN)C(=O)CN(C(=O)CN(C(=O)CN(CCCCN)C(=O)CN(C(=O)CN(C(=O)CN(CCc1c[nH]cn1)C(=O)CN(CCc1c[nH]c2ccccc12)C(=O)CN(CCc1c[nH]c2ccccc12)C(=O)CNCCCCN)[C@@H](C)c1ccccc1)[C@@H](C)c1ccccc1)[C@@H](C)c1ccccc1)[C@@H](C)c1ccccc1 [Peptoid 73] (H-[Nlys][Gly(N(CH2)2(3-indolyl))][Gly(N(CH2)2(3-indolyl))][Gly(N-CH2CH2-imidazol-4-yl)][Nspe][Nspe][Nlys][Nspe][Nspe][Nlys][Nlys][Nspe]-NH2) |  | 6.3 µM (≈ 11.9 µg/mL) |  |  |  |  |  |  | 10.0 ± 0.3 | 3.1 µM (≈ 5.85 µg/mL) | >100.0/>100.0 | >100.0/>100.0 | 
7 | C[C@@H](c1ccccc1)N(CC(=O)N(CCCCN)CC(=O)N(CC(=O)N(CC(=O)N(CCCCN)CC(=O)N(CCc1c[nH]c2ccccc12)CC(=O)N(CCc1c[nH]c2ccccc12)CC(N)=O)[C@@H](C)c1ccccc1)[C@@H](C)c1ccccc1)C(=O)CN(C(=O)CN(CCCCN)C(=O)CN(CCc1c[nH]c2ccccc12)C(=O)CN(CCc1c[nH]c2ccccc12)C(=O)CNCCCCN)[C@@H](C)c1ccccc1 [Peptoid 18] (H-[Nlys][Gly(N(CH2)2(3-indolyl))][Gly(N(CH2)2(3-indolyl))][Nlys][Nspe][Nspe][Nlys][Nspe][Nspe][Nlys][Gly(N(CH2)2(3-indolyl))][Gly(N(CH2)2(3-indolyl))]-NH2) |  |  |  | 12.5 µM (≈ 24.7 µg/mL) |  | 3.1 µM (≈ 6.12 µg/mL) | 14.3 µM | 37.8 µM | 103.5 ± 4.3% |  |  |  | 
8 | C[C@@H](c1ccccc1)N(CC(=O)N(CCCCN)CC(=O)N(CCc1c[nH]c2ccccc12)CC(=O)N(CCc1c[nH]c2ccccc12)CC(N)=O)C(=O)CN(CCCCN)C(=O)CN(CCCCN)C(=O)CN(C(=O)CN(C(=O)CN(CCc1c[nH]cn1)C(=O)CN(C(=O)CN(C(=O)CNCCCCN)[C@@H](C)c1ccccc1)[C@@H](C)c1ccccc1)[C@@H](C)c1ccccc1)[C@@H](C)c1ccccc1 [Peptoid 80] (H-[Nlys][Nspe][Nspe][Gly(N-CH2CH2-imidazol-4-yl)][Nspe][Nspe][Nlys][Nlys][Nspe][Nlys][Gly(N(CH2)2(3-indolyl))][Gly(N(CH2)2(3-indolyl))]-NH2) |  | 12.5 µM (≈ 23.6 µg/mL) |  |  |  |  |  |  | 4.0 ± 0.5 | 6.3 µM (≈ 11.9 µg/mL) | >100.0/>100.0 | >100.0/>100.0 | 
9 | C[C@@H](c1ccccc1)N(CC(=O)N(CCCCN)CC(=O)N(CC(=O)N(CC(=O)N(CCCCN)CC(=O)N(CC(=O)N(CC(=O)N(CCCCN)CC(=O)N(CCc1c[nH]c2ccccc12)CC(=O)N(CCc1c[nH]c2ccccc12)CC(N)=O)[C@@H](C)c1ccccc1)[C@@H](C)c1ccccc1)[C@@H](C)c1ccccc1)[C@@H](C)c1ccccc1)C(=O)CN(C(=O)CNCCCCN)[C@@H](C)c1ccccc1 [Peptoid 11-1] (H-[Nlys][Nspe][Nspe][Nlys][Nspe][Nspe][Nlys][Nspe][Nspe][Nlys][Gly(N(CH2)2(3-indolyl))][Gly(N(CH2)2(3-indolyl))]-NH2) |  |  |  |  | 3.1 µM |  | 10.1 µM | 21.5 µM | 113.9 ± 1.7% |  |  |  | 3.1 µM
10 | C[C@@H](c1ccccc1)N(CC(N)=O)C(=O)CN(CCc1c[nH]cn1)C(=O)CN(CCCCN)C(=O)CN(C(=O)CN(C(=O)CN(CCCCN)C(=O)CN(C(=O)CN(C(=O)CN(CCCCN)C(=O)CN(CCc1c[nH]c2ccccc12)C(=O)CN(CCc1c[nH]c2ccccc12)C(=O)CNCCCCN)[C@@H](C)c1ccccc1)[C@@H](C)c1ccccc1)[C@@H](C)c1ccccc1)[C@@H](C)c1ccccc1 [Peptoid 76] (H-[Nlys][Gly(N(CH2)2(3-indolyl))][Gly(N(CH2)2(3-indolyl))][Nlys][Nspe][Nspe][Nlys][Nspe][Nspe][Nlys][Gly(N-CH2CH2-imidazol-4-yl)][Nspe]-NH2) |  | 6.3 µM (≈ 11.9 µg/mL) |  |  |  |  |  |  | 10.1 ± 0.7 | 6.3 µM (≈ 11.9 µg/mL) | >100.0/>100.0 | >100.0/>100.0 | 
